From the supplement of paper PMC13380429

Key:
Conditions in all cases: 72 h
[1] = test system: Calu-3; assay: relative viability EC50 (midpoint between 100% and the lowest measured viability); higher = less toxic
[2] = test system: Vero E6; assay: as above
[3] = test system: HepG2; assay: as above
[4] = test system: U2OS; assay: as above
[5] = test system: Caco-2; assay: as above
[6] = test system: Calu-3; assay: drug sensitivity score (DSS) for viability; higher = more toxic; extreme values may be limits of the assay
[7] = test system: Vero E6; assay: as above
[8] = test system: HepG2; assay: as above
[9] = test system: U2OS; assay: as above
[10] = test system: Caco-2; assay: as above
[11] = test system: Calu-3; assay: cell viability relative to DMSO; higher = less toxic
[12] = test system: Vero E6; assay: as above
[13] = test system: HepG2; assay: as above
[14] = test system: U2OS; assay: as above
[15] = test system: Caco-2; assay: as above

Structure (SMILES)	relative viability EC50 [1] [µM]	relative viability EC50 [2] [µM]	relative viability EC50 [3] [µM]	relative viability EC50 [4] [µM]	relative viability EC50 [5] [µM]	drug sensitivity score [6]	drug sensitivity score [7]	drug sensitivity score [8]	drug sensitivity score [9]	drug sensitivity score [10]	cell viability ([11]; 1 nM) [%]	cell viability ([11]; 10 nM) [%]	cell viability ([11]; 100 nM) [%]	cell viability ([11]; 1000 nM) [%]	cell viability ([11]; 10000 nM) [%]	cell viability ([12]; 1 nM) [%]	cell viability ([12]; 10 nM) [%]	cell viability ([12]; 100 nM) [%]	cell viability ([12]; 1000 nM) [%]	cell viability ([12]; 10000 nM) [%]	cell viability ([13]; 1 nM) [%]	cell viability ([13]; 10 nM) [%]	cell viability ([13]; 100 nM) [%]	cell viability ([13]; 1000 nM) [%]	cell viability ([13]; 10000 nM) [%]	cell viability ([14]; 1 nM) [%]	cell viability ([14]; 10 nM) [%]	cell viability ([14]; 100 nM) [%]	cell viability ([14]; 1000 nM) [%]	cell viability ([14]; 10000 nM) [%]	cell viability ([15]; 1 nM) [%]	cell viability ([15]; 10 nM) [%]	cell viability ([15]; 100 nM) [%]	cell viability ([15]; 1000 nM) [%]	cell viability ([15]; 10000 nM) [%]
CCCn1c(=O)c(C)cn2nc(N)nc12	> 10	> 10	> 10	> 10	> 10	0	0	0	0	0	105	102	102	111	99	90.1	103	96	97.1	97.7	96.9	95	93.8	98.3	107	100	97.3	104	98.9	101	91.7	91.5	102	99.5	112
CCOC(=O)Nc1ccc2c(c1)N(C(=O)CCN1CCOCC1)c1ccccc1S2 [moracizine]	> 10	> 10	> 10	> 10	> 10	0	0	0	0	0.9	103	95.3	98.8	95.3	98.3	97.1	101	96.9	98.8	96.2	94.6	92.6	97.8	91.6	99.4	98.4	104	101	99	96.6	101	109	96.3	96.8	80.8
O=C1C=Cc2cc(Br)ccc2C1=O [bonaphthone]	> 10	> 10	> 10	> 10	> 10	0.8	0	0	0.1	0	116	104	94.3	88	99.1	95.5	98.6	93.5	99.5	102	101	117	97.5	107	94.2	101	96.1	103	101	85.6	87.2	86.3	97.9	102	94.4
O=C(Nc1cnccc1Cl)N1CCN(Cc2ccc3c(c2)OC(F)(F)O3)CC1	> 10	> 10	2.06	> 10	> 10	0	0	4.7	0	1	92.4	100	95.2	99	92.8	108	103	103	100	92.4	95.6	100	100	91.6	39.3	99.8	97.5	99.1	98.8	94	97.7	101	94	90.3	81
COc1cccc(/C=N/N=C/c2cccc(OC)c2)c1 [DMeOB]	> 10	> 10	> 10	> 10	> 10	0	0	0	0	0	101	114	99.6	111	105	109	99.8	103	99.2	103	110	93.3	103	98.4	94.9	101	102	97.5	107	99.3	96.4	106	96.9	104	103
CC(C)(C)c1cc(C(=O)/C(C#N)=N/Nc2cccc(Cl)c2)no1 [ESI-09]	> 10	> 10	3.4	> 10	2.75	0	0	3.5	0.2	3.9	103	93.7	91.9	102	95.9	90	94.2	91	99.3	83.3	109	102	102	103	31.2	98.1	96.1	98.4	96.1	87.6	99.8	96.1	104	96.6	37
Cc1c(S(=O)(=O)O)oc2c1C(=O)C(=O)c1c-2ccc2c1CCCC2(C)C [sodium-tanshinone-II-A-sulfonate]	> 10	> 10	> 10	> 10	> 10	0	1.8	0	0	0	90.2	100	101	99.1	98.6	103	100	97.5	84.5	94.1	106	92.2	116	95.9	107	96.4	99.7	91.1	99.6	94.6	97.7	96.3	109	93.2	102
